Legend:
S. aureus strain AH1252 = assay: Neutropenic rat lung infection model; format: in vivo; details: iclaprim 80 mg/kg
Experimental: S. aureus strain AH1252, a thymidine knockout of the MRSA wild type AW6 strain, was utilized for this study. The bacterial strain was diluted in a 2% alginate buffer, which was added dropwise in a ratio of 1:5 into […] to form alginate beads. The alginate beads reduce the efficacy of bacterial clearance similar to that seen in the cystic fibrosis population. A 5.25×10^4 bacterial inoculum was administered to groups of 9 rats, intratracheally, with prepared alginate bacteria suspensions, under isoflurane anesthesia. […] Twelve hours after the last treatment, rats were euthanized and lungs collected for CFU determination.

[1] = Single-dose ECG study in healthy human volunteers (1.6 and 3.2 mg/kg over 30 minutes); format: in vivo; details: 3.2 mg/kg infused over 30 minutes
Experimental: Based on this, a single-dose ECG-study was conducted in healthy human volunteers, where 1.6 mg/kg and 3.2 mg/kg iclaprim was infused over 30 minutes. […] Maximal increases coincided with Cmax levels and were rapidly reversible. Weight-based dosing with 1.6 mg/kg was thus assessed as acceptable for clinical purposes, whereas weight-based dosing at 3.2 mg/kg was associated with relevant QTc prolongations (>60 msec) and nonspecific T-wave alterations, and was not used for further clinical studies.

E. coli = assay: MIC with/without bovine pulmonary surfactant, E. coli; format: cell-based, Escherichia coli; details: E. coli ATCC 25922
Experimental: Clinical isolates were identified by the submitting laboratories and confirmed by JMI Laboratories using standard bacteriologic algorithms and methodologies, including Matrix-Assisted Laser Desorption Ionization-Time Of Flight Mass Spectrometry (MALDI-TOF MS). When necessary, MALDI-TOF MS was performed using the Bruker Daltonics MALDI Biotyper (Billerica, Mass., USA), following manufacturer's instructions. Isolates selected were bacterial species commonly associated with pneumonia. […] 2.2 Susceptibility testing
Antibacterial susceptibility testing was measured by JMI Labs (North Liberty, Iowa, USA). […] These clinical isolates were collected from US (n=4), Mexico (n=2), and Italy (n=1). Susceptibility testing was performed by broth microdilution in accordance with the Clinical and Laboratory and Standards Institute (CLSI) guidelines M07-A10 (2015) and the standard operating procedures at JMI laboratories. Minimum inhibitory concentrations (MICs) were based on CLSI criteria (2015). There are no published breakpoints for iclaprim. E. coli, K. pneumoniae, M. catarrhalis, E. faecalis, and S. aureus were tested in cation-adjusted Mueller-Hinton broth (CA-MHB). S. pneumoniae were tested in CA-MHB supplemented with 2.5-5% lysed horse blood, and H. influenza were tested in Haemophilus test medium. Quality control and interpretation of results were performed in accordance with CLSI M100-S26 (2016) methods. QC ranges for iclaprim were those approved by CLSI and published in M100-S26 (2016). Iclaprim and comparator antibiotic MIC results were within the CLSI published ranges against E. coli ATCC 25922, E. faecalis ATCC 29212, E. faecalis ATCC 33186, H. influenzae ATCC 49247, K. pneumoniae ATCC 700603 (ESBL phenotype), S. aureus ATCC 29213, and S. pneumoniae ATCC 49619. Isolates were tested with MIC panels (ThermoFisher Scientific, Cleveland, Ohio, USA) of comparator antibiotics (daptomycin and levofloxacin).
Because bovine pulmonary surfactant can introduce cloudiness to the MIC testing media, antimicrobial growth inhibition was also evaluated using the colorimetric metabolic indicator resazurin (Camlab Ltd., Cambridge, UK). […] S. pneumoniae panels were omitted from resazurin analysis because the color change was obscured by the lysed horse blood present in the test medium. Growth inhibition was then evaluated as a visible color change from blue (no growth) to pink (robust growth) and recorded as a MICRZ value.
The MICs of iclaprim, levofloxacin, and daptomycin were determined against Gram-positive and Gram-negative isolates.
A new vial of bovine pulmonary surfactant (BPS; Survanta®; Abbott Laboratories, Columbus, Ohio) was utilized for each independent experiment. […] MICs of daptomycin were determined in CAMHB with the Ca^2+ content adjusted to 50 mg/L.

[2] = SC/BID 3 days, vancomycin 50 mg/kg

With COc1cc(Cc2cnc(N)nc2N)c2c(c1OC)OC(C1CC1)C=C2 (racemic) [Iclaprim] the “72 hour lungs (CFU/gram of lung) log10CFU/Lung” value (S. aureus strain AH1252; [2]) was 3.34 log10CFU/Lung, the “Change in CFUs from 2 hr.” value (S. aureus strain AH1252; [2]) was 0.22 log 10 CFU and the “Survival >60 hrs” value (S. aureus strain AH1252; SC/BID 3 days, vancomycin 50 mg/kg, 9 rats) was 9/9. The “survival compared to the infection controls” value (S. aureus strain AH1252; vancomycin 50 mg/kg SC/BID) was “increased survival”, the “Change in CFUs from 72 hr.” value (S. aureus strain AH1252; vs 72 hr infection controls, vancomycin 50 mg/kg SC/BID) was −5.34 log 10 CFU and the QTc prolongations [1] was > 60 ms. The “MICRZ, Resazurin: +BPS” value (E. coli; 2.5% v/v BPS) was 1 µg/mL and the “MICRZ, Resazurin” value (E. coli; no BPS) was 1 µg/mL.
